Publication PMC7419507, “In vitro Cas9-assisted editing of modular polyketide synthase genes to produce desired natural product derivatives” (Nature Communications, 2020)
Several values for one entry are separate records, joined by “and”; a condition that tells them apart may be missing. Equal values may be shown once.

Tests used:
Type in all cases: cell-based
[1] = tested on: human ovarian adenocarcinoma SKOV-3 cells; assay: Cytotoxicity assay (CellTiter-Glo, 72 h), SKOV-3; details: raw replicate data
Procedure: (§1) Jurkat cells were cultured in RPMI1640 medium supplemented with 10% foetal bovine serum, penicillin (50 U/ml), streptomycin (50 μg/ml), and Glutamax. SKOV-3 cells were cultured in DMEM medium supplemented with 10% fetal bovine serum, penicillin (50 U/ml), and streptomycin (50 μg/ml). MESO-1 cells were cultured in RPMI1640 medium supplemented with 10% fetal bovine serum, penicillin (50 U/ml), and streptomycin (50 μg/ml). All cell lines were seeded in a 384-well plate at a density of 1000 cells/well in 20 μl of media and incubated at 37 °C in a humidified incubator with 5% CO2. After 4 h, 2-fold dilution samples resolved in DMSO were added to the cell culture at the concentration of 0.5% (0.1 μl) and incubated for 72 h. Cell viabilities were measured using a CellTiter-Glo luminescent cell viability assay and EnVision multilabel plate reader.

[2] = tested on: malignant pleural mesothelioma MESO-1 cells; assay: Cytotoxicity assay (CellTiter-Glo, 72 h), MESO-1; details: raw replicate data
Procedure: as §1

FKBP12 and mTOR = molecular target: T1, FKBP12 and mTOR (Homo sapiens, UniProt P42345+P62942); assay: Fluoppi analysis: induction of FKBP12-mTOR complex formation in transfected HeLa cells; details: for Foci intensity: raw data, one replicate per line
T1 construct: host or cells: HeLa cells
Procedure: Fluoppi harbours a tetrameric fluorescent protein hAG tag and an oligomeric assembly helper Ash tag to create detectable fluorescent foci in cells when there are interactions between two proteins fused to each tag[32].
HeLa cells were maintained in DMEM (Fujifilm Wako, Osaka, Japan) supplemented with 10% FBS (Thermo Fisher Scientific, MA, USA) and 1% of Penicillin-Streptomycin (Thermo Fisher Scientific) in a humidified incubator with 5% CO2 at 37 °C. Harvested cells were plated at 1 × 10^6 cells/well in 6-well plate and incubated for 6 h. Then each 1.25 µg of phAG-mTOR and pAsh-FKBP12 (Medical and Biological Laboratories Co., Ltd., Aichi, Japan) was co-transfected with Lipofectamine 2000 reagent (Thermo Fisher Scientific) overnight. Next day, transfected cells were harvested and seeded in 384-well optical-bottom microplate (PerkinElmer, MA, USA) at a density of 3000 cells/well. After the 24 h incubation at 37 °C, cells were treated with different concentrations of compounds for 1 h. Cells were then fixed with 4% paraformaldehyde and stained with 1 µg/ml of Hoechst33342 (Thermo Fisher Scientific). Cell images of 9 visual fields/well were acquired with ×20 objective lens in Opera Phenix High-Content Screening System (PerkinElmer) and analysed by Harmony4.9 software (PerkinElmer). Because protein-protein interactions are quantified by measuring the aggregation of fluorescent elements in foci, fluorescent intensity in foci was normalised by total fluorescent intensity in each cell. EC50 values were calculated using TIBCO Spotfire 10.3 software (PerkinElmer).

[3] = tested on: Jurkat, SKOV-3 and MESO-1 cells; assay: Cytotoxicity assay, statements for all tested cell lines together; details: against the tested cell lines (Jurkat, SKOV-3, MESO-1)
Procedure: as §1

T lymphoma Jurkat cells = assay: Cytotoxicity assay (CellTiter-Glo, 72 h), Jurkat; details: raw data (replicates)
Procedure: as §1

T1 sequence (P42345 2025-2114 limits assumed): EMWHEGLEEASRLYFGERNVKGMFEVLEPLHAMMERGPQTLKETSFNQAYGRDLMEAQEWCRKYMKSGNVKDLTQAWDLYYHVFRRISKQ
T1 sequence (P62942 whole entry): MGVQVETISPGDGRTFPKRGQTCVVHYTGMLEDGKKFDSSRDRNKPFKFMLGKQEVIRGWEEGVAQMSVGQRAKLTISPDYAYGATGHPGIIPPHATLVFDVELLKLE

Foci intensity (FKBP12 and mTOR; conc 9.53674e-5 uM): 0.02286 and 0.01106 and 0.01492
Foci intensity (FKBP12 and mTOR; conc 0.000190735 uM): 0.009983 and 0.01574 and 0.02887
Foci intensity (FKBP12 and mTOR; conc 0.00038147 uM): 0.01899 and 0.01621 and 0.01221
Foci intensity (FKBP12 and mTOR; conc 0.000762939 uM): 0.002009 and 0.003868 and 0.01862
Foci intensity (FKBP12 and mTOR; conc 0.00152588 uM): 0.02126 and 0.01678 and 0.003092
Foci intensity (FKBP12 and mTOR; conc 0.00305176 uM): 0.0138 and 0.01691 and 0.01576
Foci intensity (FKBP12 and mTOR; conc 0.00610352 uM): 0.03172 and 0.01801 and 0.0222
Foci intensity (FKBP12 and mTOR; conc 0.012207 uM): 0.01093 and 0.01362 and 0.01381
Foci intensity (FKBP12 and mTOR; conc 0.0244141 uM): 0.01964 and 0.01491 and 0.01835
Foci intensity (FKBP12 and mTOR; conc 0.0488281 uM): 0.004003 and 0.01339 and 0.01507
Foci intensity (FKBP12 and mTOR; conc 0.0976562 uM): 0.01375 and 0.009337 and 0.02775
Foci intensity (FKBP12 and mTOR; conc 0.195312 uM): 0.0177 and 0.02519 and 0.008414
Foci intensity (FKBP12 and mTOR; conc 0.390625 uM): 0.01709 and 0.006803 and 0.01525
Foci intensity (FKBP12 and mTOR; conc 0.78125 uM): 0.01284 and 0.02644 and 0.03084
Foci intensity (FKBP12 and mTOR; conc 1.5625 uM): 0.02173 and 0.02485 and 0.03636
Foci intensity (FKBP12 and mTOR; conc 3.125 uM): 0.02309 and 0.03313 and 0.02928
Foci intensity (FKBP12 and mTOR; conc 6.25 uM): 0.01525 and 0.02728 and 0.02945
Foci intensity (FKBP12 and mTOR; conc 12.5 uM): 0.02884 and 0.0389 and 0.01245
Foci intensity (FKBP12 and mTOR; conc 25 uM): 0.03878 and 0.02312 and 0.004037
Foci intensity (FKBP12 and mTOR; conc 50 uM): 0.02187 and 0.0201 and 0.02169
Structure (SMILES): COC1CC2CCC(C)C(O)(O2)C(=O)C(=O)N2CCCCC2C(=O)OC(C(C)CC2CCC(O)C(OC)C2)CC(O)CC(=O)C(C)CC(C)C=CC=CC=C1C (stereo not shown) [Compound 11]
SKOV3 viability (%) ([1]; conc 9.53674e-5 uM): 103.0% and 111.8% and 102.7%
SKOV3 viability (%) ([1]; conc 0.000190735 uM): 100.4% and 96.2% and 95.8%
SKOV3 viability (%) ([1]; conc 0.00038147 uM): 103.1% and 104.5% and 105.0%
SKOV3 viability (%) ([1]; conc 0.000762939 uM): 97.9% and 100.1% and 100.0%
SKOV3 viability (%) ([1]; conc 0.00152588 uM): 106.4% and 105.2% and 101.9%
SKOV3 viability (%) ([1]; conc 0.00305176 uM): 98.6% and 97.0% and 99.4%
SKOV3 viability (%) ([1]; conc 0.00610352 uM): 109.3% and 103.3% and 106.5%
SKOV3 viability (%) ([1]; conc 0.012207 uM): 99.6% and 97.7% and 101.2%
SKOV3 viability (%) ([1]; conc 0.0244141 uM): 103.3% and 106.1% and 104.6%
SKOV3 viability (%) ([1]; conc 0.0488281 uM): 98.5% and 100.3% and 98.3%
SKOV3 viability (%) ([1]; conc 0.0976562 uM): 105.4% and 104.9% and 104.3%
SKOV3 viability (%) ([1]; conc 0.195312 uM): 95.0% and 97.7% and 100.1%
SKOV3 viability (%) ([1]; conc 0.390625 uM): 104.0% and 107.6% and 105.3%
SKOV3 viability (%) ([1]; conc 0.78125 uM): 100.0% and 99.8% and 98.6%
SKOV3 viability (%) ([1]; conc 1.5625 uM): 98.3% and 102.6% and 98.7%
SKOV3 viability (%) ([1]; conc 3.125 uM): 98.0% and 99.6% and 88.9%
SKOV3 viability (%) ([1]; conc 6.25 uM): 95.1% and 93.6% and 91.3%
SKOV3 viability (%) ([1]; conc 12.5 uM): 92.5% and 90.6% and 91.1%
SKOV3 viability (%) ([1]; conc 25 uM): 91.0% and 92.9% and 94.1%
SKOV3 viability (%) ([1]; conc 50 uM): 83.8% and 79.2% and 82.0%
MESO1 viability (%) ([2]; conc 9.53674e-5 uM): 103.9% and 103.5% and 98.5%
MESO1 viability (%) ([2]; conc 0.000190735 uM): 96.6% and 99.4% and 97.9%
MESO1 viability (%) ([2]; conc 0.00038147 uM): 98.3% and 99.6% and 101.3%
MESO1 viability (%) ([2]; conc 0.000762939 uM): 105.2% and 96.5% and 100.7%
MESO1 viability (%) ([2]; conc 0.00152588 uM): 101.4% and 100.3% and 96.4%
MESO1 viability (%) ([2]; conc 0.00305176 uM): 100.9% and 90.0% and 104.4%
MESO1 viability (%) ([2]; conc 0.00610352 uM): 103.9% and 99.7% and 97.3%
MESO1 viability (%) ([2]; conc 0.012207 uM): 100.4% and 97.8% and 98.7%
MESO1 viability (%) ([2]; conc 0.0244141 uM): 97.0% and 101.2% and 106.3%
MESO1 viability (%) ([2]; conc 0.0488281 uM): 98.5% and 98.3% and 96.0%
MESO1 viability (%) ([2]; conc 0.0976562 uM): 105.6% and 104.1% and 98.8%
MESO1 viability (%) ([2]; conc 0.195312 uM): 98.6% and 98.7% and 91.4%
MESO1 viability (%) ([2]; conc 0.390625 uM): 103.9% and 97.5% and 98.1%
MESO1 viability (%) ([2]; conc 0.78125 uM): 94.8% and 90.3% and 84.8%
MESO1 viability (%) ([2]; conc 1.5625 uM): 93.0% and 93.7% and 91.6%
MESO1 viability (%) ([2]; conc 3.125 uM): 84.8% and 80.8% and 88.7%
MESO1 viability (%) ([2]; conc 6.25 uM): 89.0% and 88.1% and 84.7%
MESO1 viability (%) ([2]; conc 12.5 uM): 82.3% and 77.8% and 85.2%
MESO1 viability (%) ([2]; conc 25 uM): 76.7% and 80.1% and 74.6%
MESO1 viability (%) ([2]; conc 50 uM): 57.9% and 55.6% and 52.8%
PPI-inducing (binding enhancing) activity between FKBP12 and mTOR compared with rapamycin (1), in words (FKBP12 and mTOR; Fluoppi): completely lost the ability to induce the formation of FKBP12-mTOR complex
Concentration at which cytotoxic activities were shown [3]: over 10 µM
Jurkat viability (%) (T lymphoma Jurkat cells; conc 9.53674e-5 uM): 99.6% and 105.7% and 104.8%
Jurkat viability (%) (T lymphoma Jurkat cells; conc 0.000190735 uM): 102.5% and 104.1% and 102.4%
Jurkat viability (%) (T lymphoma Jurkat cells; conc 0.00038147 uM): 103.5% and 109.4% and 98.8%
Jurkat viability (%) (T lymphoma Jurkat cells; conc 0.000762939 uM): 99.9% and 101.1% and 97.3%
Jurkat viability (%) (T lymphoma Jurkat cells; conc 0.00152588 uM): 100.9% and 100.4% and 103.9%
Jurkat viability (%) (T lymphoma Jurkat cells; conc 0.00305176 uM): 102.0% and 103.4% and 101.1%
Jurkat viability (%) (T lymphoma Jurkat cells; conc 0.00610352 uM): 100.0% and 104.2% and 103.2%
Jurkat viability (%) (T lymphoma Jurkat cells; conc 0.012207 uM): 106.8% and 106.3% and 106.1%
Jurkat viability (%) (T lymphoma Jurkat cells; conc 0.0244141 uM): 104.8% and 107.2% and 106.6%
Jurkat viability (%) (T lymphoma Jurkat cells; conc 0.0488281 uM): 97.2% and 96.3% and 106.5%
Jurkat viability (%) (T lymphoma Jurkat cells; conc 0.0976562 uM): 106.1% and 104.1% and 111.0%
Jurkat viability (%) (T lymphoma Jurkat cells; conc 0.195312 uM): 100.5% and 100.4% and 103.3%
Jurkat viability (%) (T lymphoma Jurkat cells; conc 0.390625 uM): 100.9% and 100.4% and 105.6%
Jurkat viability (%) (T lymphoma Jurkat cells; conc 0.78125 uM): 94.7% and 91.5% and 97.0%
Jurkat viability (%) (T lymphoma Jurkat cells; conc 1.5625 uM): 93.8% and 86.6% and 86.2%
Jurkat viability (%) (T lymphoma Jurkat cells; conc 3.125 uM): 76.9% and 80.2% and 77.8%
Jurkat viability (%) (T lymphoma Jurkat cells; conc 6.25 uM): 68.8% and 66.4% and 70.4%
Jurkat viability (%) (T lymphoma Jurkat cells; conc 12.5 uM): 58.6% and 56.1% and 57.5%
Jurkat viability (%) (T lymphoma Jurkat cells; conc 25 uM): 45.9% and 41.4% and 49.3%
Jurkat viability (%) (T lymphoma Jurkat cells; conc 50 uM): 12.3% and 11.6% and 15.7%
